Target: PRMT5/MEP50 complex (Homo sapiens, UniProt O14744)
Test: 2.5 μL of compound solution in the assay buffer with 4% DMSO and 5 μL of PRMT5/MRP50 complex/SAM mixture solution in the assay buffer which was pre-incubated for 30 minutes were added into a white low volume 384 well microtiter plate. This mixture solution was incubated for 15 minutes with gentle shaking at room temperature. Methyl transfer reaction was initiated by adding 2.5 μL of Biotin-H4 (1-21) peptide substrate solution in the assay buffer. […] The reaction was allowed to perform for 120 minutes in dark with gentle shaking at room temperature after which 5 μL of Anti-H4R3-Me AlphaLISA acceptor beads in detection buffer from the manufacturer was added into the reaction mixture followed by incubation for 60 minutes. 10 μL of Streptavidin labeled AlphaLISA donor beads in detection buffer was added into the mixture followed by 30 minute incubation. Final acceptor and donor beads concentrations were 10 μg/mL.
Format: protein-complex assay

PRMT5/MEP50 complex, sequence (O14744 whole entry): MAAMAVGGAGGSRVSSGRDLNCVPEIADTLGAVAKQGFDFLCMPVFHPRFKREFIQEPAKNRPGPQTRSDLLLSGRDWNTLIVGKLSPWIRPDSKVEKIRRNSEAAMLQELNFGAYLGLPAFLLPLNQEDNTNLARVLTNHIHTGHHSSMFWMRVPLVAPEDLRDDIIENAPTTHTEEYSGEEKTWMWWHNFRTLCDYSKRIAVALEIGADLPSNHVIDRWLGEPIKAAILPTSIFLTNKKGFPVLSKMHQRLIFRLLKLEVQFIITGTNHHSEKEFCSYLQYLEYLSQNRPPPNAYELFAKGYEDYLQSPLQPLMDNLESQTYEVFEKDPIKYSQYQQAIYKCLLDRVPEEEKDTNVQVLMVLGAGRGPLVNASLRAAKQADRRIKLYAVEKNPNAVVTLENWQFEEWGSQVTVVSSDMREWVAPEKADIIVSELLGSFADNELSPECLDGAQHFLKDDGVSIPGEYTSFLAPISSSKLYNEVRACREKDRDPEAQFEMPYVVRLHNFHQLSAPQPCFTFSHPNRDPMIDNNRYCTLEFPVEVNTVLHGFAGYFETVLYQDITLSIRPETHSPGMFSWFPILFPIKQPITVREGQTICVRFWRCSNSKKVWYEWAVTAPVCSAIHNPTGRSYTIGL
PRMT5/MEP50 complex, sequence (Q9BQA1 whole entry, further chain): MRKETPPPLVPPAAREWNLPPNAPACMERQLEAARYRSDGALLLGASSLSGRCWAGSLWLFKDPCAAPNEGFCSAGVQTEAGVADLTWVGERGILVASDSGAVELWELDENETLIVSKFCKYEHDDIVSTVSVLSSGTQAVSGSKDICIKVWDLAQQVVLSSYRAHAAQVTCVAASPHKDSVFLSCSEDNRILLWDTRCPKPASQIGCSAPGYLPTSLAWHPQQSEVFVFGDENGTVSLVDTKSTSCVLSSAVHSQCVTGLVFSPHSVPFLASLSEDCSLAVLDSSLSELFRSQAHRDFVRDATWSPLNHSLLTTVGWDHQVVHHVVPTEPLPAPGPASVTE

O=C1c2cc(NC3CCC3)ccc2CCN1CC(O)CN1CCc2ccccc2C1 (stereo unspecified)
IC50: 236 nM

Source: ChEMBL document CHEMBL5729615, “Inhibitors of protein arginine methyltransferase 5 (PRMT5), pharmaceutical products thereof, and methods thereof” (2023)
